These results are taken from patent publication EP3046573B1, “AMYLIN ANALOGUES” (Zealand Pharma A/S, priority 2013, dated 2015).

Numbered stars: 1 amine (or outer) side, 2 acyl side, 3 side chain; on linkers, the order of the positions; unused ones are H or OH. Bridge positions count the residues as written; N and C are the ends. Square brackets hold non-standard residues; d marks the D form. Peptide text beside a SMILES is read from it. * marks the point of attachment. C20 diacid = O=C(O)CCCCCCCCCCCCCCCCCCC(=O)*; γGlu = O=C(O)[C@H](CCC(=O)[*:2])N[*:1]; NMeI = CC[C@H](C)[C@H](NC)C(=O)O; Sar = CNCC(=O)O

The target of series [1] is T1, human calcitonin receptor (hCTR2) (Homo sapiens, UniProt P30988).
T1 construct: expressed in transfected cells
T1 sequence (P30988 25-474): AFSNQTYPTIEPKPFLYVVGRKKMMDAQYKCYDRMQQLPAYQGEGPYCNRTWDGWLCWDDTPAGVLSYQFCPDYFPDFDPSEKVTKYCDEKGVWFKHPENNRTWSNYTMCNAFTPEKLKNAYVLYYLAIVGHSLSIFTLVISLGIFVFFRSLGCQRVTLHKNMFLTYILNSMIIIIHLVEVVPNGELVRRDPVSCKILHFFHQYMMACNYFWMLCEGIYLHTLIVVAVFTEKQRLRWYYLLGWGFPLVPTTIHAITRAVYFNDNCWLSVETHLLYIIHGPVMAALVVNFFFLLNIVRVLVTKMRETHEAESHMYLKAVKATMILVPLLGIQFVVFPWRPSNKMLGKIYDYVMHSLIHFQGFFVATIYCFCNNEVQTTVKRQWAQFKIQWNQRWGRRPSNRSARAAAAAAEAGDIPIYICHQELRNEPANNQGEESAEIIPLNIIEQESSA
In words: hCTR2 assay: induction of cAMP (AlphaScreen cAMP Assay kit) in COS7 cells expressing hCTR2. The series is classed as cell-based. To be noted: cAMP induction in COS7 cells expressing hCTR2; average of a minimum of 3 determinations; read-out: hCTR2 EC50. In outline: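 COS7 stable hCTR2 clone (RAMP-free); peptide dose-response 15 min 37° C in Tyrode pH 7.4 + 100 µM IBMX + 0.1% casein; lysis 10 min RT; AlphaScreen cAMP; 4PL fit.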

The nature of series [2]: Solubility assessment (turbidity absorbance at 325 nm). The series is classed as physicochemical. To be noted: stock 2 mg/ml diluted 1:1, ambient temperature (typically 25°C), n=1; for Solubility, Acetate buffer pH 4: 100 mM acetate buffer pH 4.0; for Solubility, Acetate buffer pH 5: 100 mM acetate buffer pH 5.0; for Solubility, Histidine buffer pH 6: 100 mM histidine buffer pH 6.0; for Solubility, Histidine buffer pH 7: 100 mM histidine buffer pH 7.0; for Solubility, Phosphate buffer pH 6: 100 mM phosphate buffer pH 6.0; for Solubility, Phosphate buffer pH 7: 100 mM phosphate buffer pH 7.0; for Solubility, Phosphate buffer pH 7.5: 100 mM phosphate buffer pH7.5. In outline:
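Peptide stock (2 mg/ml, water pH 2.5) diluted 1:1 into 100 mM acetate (pH 4.0, 5.0), histidine (pH 6.0, 7.0) or phosphate (pH 6.0–7.5) buffer; absorbance at 325 nm read at about 25°C, n=1. A325 ≤ 0.02 taken as solubility ≥ 1 mg/ml.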

By EC50 is commonly meant the concentration needed to bring the measured effect to its halfway point. Turning to `CC[C@H](C)[C@@H](C(=O)N[C@@H](CC(C)C)C(=O)N[C@@H](CO)C(=O)N[C@@H](CO)C(=O)N[C@H](C(=O)N[C@@H](CCC(=O)O)C(=O)N[C@H](C(=O)NCC(=O)N[C@@H](CO)C(=O)N[C@@H](CCC(=O)O)C(=O)N[C@H](C(=O)N1CCC[C@H]1C(N)=O)[C@@H](C)O)C(C)C)[C@@H](C)O)N(C)C(=O)[C@H](C)NC(=O)CN(C)C(=O)[C@H](Cc1ccccc1)NC(=O)[C@H](CO)NC(=O)[C@H](CO)NC(=O)[C@H](CO)NC(=O)[C@H](CO)NC(=O)[C@H](CCCNC(=N)N)NC(=O)[C@H](Cc1c[nH]cn1)NC(=O)[C@H](CC(C)C)NC(=O)[C@H](Cc1ccccc1)NC(=O)[C@H](CCC(=O)O)NC(=O)[C@H](C)NC(=O)[C@H](CC(C)C)NC(=O)[C@H](CCCNC(=N)N)NC(=O)[C@H](CCC(N)=O)NC(=O)[C@@H](NC(=O)[C@H](C)NC(=O)[C@@H]1CSSC[C@H](NC(=O)[C@H](CCCNC(=N)N)NC(=O)CC[C@H](NC(=O)CCCCCCCCCCCCCCCCCCC(=O)O)C(=O)O)C(=O)N[C@@H](CC(N)=O)C(=O)N[C@@H]([C@@H](C)O)C(=O)N[C@@H](C)C(=O)N[C@@H]([C@@H](C)O)C(=O)N1)[C@@H](C)O` [Compound 76, [19CD]-isoGlu-RC()NTATC()ATQRLAEFLHRSSSSF-Gly(Me)-A-Ile(Me)-LSSTEVGSETP-NH2] ({C20 diacid-γGlu}-RCNTATCATQRLAEFLHRSSSSF[Sar]A[NMeI]LSSTEVGSETP-NH2; disulfide 2-7), the EC50 in series [1] stood at 0.19 nM. Also, in series [2], the “Solubility, Acetate buffer pH 4” value was “SS (SS indicates solubility ≥ 1mg/ml)”; the “Solubility, Acetate buffer pH 5” value is given as “II (II indicates solubility ≤ 1 mg/ml)”; the “Solubility, Histidine buffer pH 6” value is listed as “SS (SS indicates solubility ≥ 1mg/ml)”; the “Solubility, Histidine buffer pH 7” value is listed as “SS (SS indicates solubility ≥ 1mg/ml)”. Further, in series [2], the “Solubility, Phosphate buffer pH 6” value is listed as “SS (SS indicates solubility ≥ 1mg/ml)”; the “Solubility, Phosphate buffer pH 7” value is “SS (SS indicates solubility ≥ 1mg/ml)”; the “Solubility, Phosphate buffer pH 7.5” value is on record as “SS (SS indicates solubility ≥ 1mg/ml)”.
Consider `CC[C@H](C)[C@@H](C(=O)N[C@@H](CC(C)C)C(=O)N[C@@H](CO)C(=O)N[C@@H](CO)C(=O)N[C@H](C(=O)N[C@@H](CCC(=O)O)C(=O)N[C@H](C(=O)NCC(=O)N[C@@H](CO)C(=O)N[C@@H](CCC(=O)O)C(=O)N[C@H](C(=O)N1CCC[C@H]1C(N)=O)[C@@H](C)O)C(C)C)[C@@H](C)O)N(C)C(=O)[C@H](C)NC(=O)CN(C)C(=O)[C@H](Cc1ccccc1)NC(=O)[C@H](CO)NC(=O)[C@H](CO)NC(=O)[C@H](CCCNC(=N)N)NC(=O)[C@H](Cc1c[nH]cn1)NC(=O)[C@H](CC(C)C)NC(=O)[C@H](Cc1ccccc1)NC(=O)[C@H](CCC(=O)O)NC(=O)[C@H](C)NC(=O)[C@H](CC(C)C)NC(=O)[C@H](CCCNC(=N)N)NC(=O)[C@H](CCC(N)=O)NC(=O)[C@@H](NC(=O)[C@H](C)NC(=O)[C@@H]1CSSC[C@H](NC(=O)[C@H](CCCNC(=N)N)NC(=O)CC[C@H](NC(=O)CCCCCCCCCCCCCCCCCCC(=O)O)C(=O)O)C(=O)N[C@@H](CC(N)=O)C(=O)N[C@@H]([C@@H](C)O)C(=O)N[C@@H](C)C(=O)N[C@@H]([C@@H](C)O)C(=O)N1)[C@@H](C)O` [Compound 82, [19CD]-isoGlu-RC()NTATC()ATQRLAEFLHRSSF-Gly(Me)-A-Ile(Me)-LSSTEVGSETP-NH2] ({C20 diacid-γGlu}-RCNTATCATQRLAEFLHRSSF[Sar]A[NMeI]LSSTEVGSETP-NH2; disulfide 2-7), for which, in series [1], the EC50 worked out at 0.07 nM. For the same compound, in series [2], the “Solubility, Acetate buffer pH 4” value is given as “SS (SS indicates solubility ≥ 1mg/ml)”; the “Solubility, Acetate buffer pH 5” value is “SS (SS indicates solubility ≥ 1mg/ml)”; the “Solubility, Histidine buffer pH 6” value is reported as “SS (SS indicates solubility ≥ 1mg/ml)”; the “Solubility, Histidine buffer pH 7” value is recorded as “SS (SS indicates solubility ≥ 1mg/ml)”. In addition, in series [2], the “Solubility, Phosphate buffer pH 6” value is listed as “SS (SS indicates solubility ≥ 1mg/ml)”; the “Solubility, Phosphate buffer pH 7” value is recorded as “SS (SS indicates solubility ≥ 1mg/ml)”; the “Solubility, Phosphate buffer pH 7.5” value was “SS (SS indicates solubility ≥ 1mg/ml)”.
